In data set [1] the target is T1, Polyunsaturated fatty acid 5-lipoxygenase (Rattus norvegicus, UniProt P12527).
T1 sequence (P12527 whole entry): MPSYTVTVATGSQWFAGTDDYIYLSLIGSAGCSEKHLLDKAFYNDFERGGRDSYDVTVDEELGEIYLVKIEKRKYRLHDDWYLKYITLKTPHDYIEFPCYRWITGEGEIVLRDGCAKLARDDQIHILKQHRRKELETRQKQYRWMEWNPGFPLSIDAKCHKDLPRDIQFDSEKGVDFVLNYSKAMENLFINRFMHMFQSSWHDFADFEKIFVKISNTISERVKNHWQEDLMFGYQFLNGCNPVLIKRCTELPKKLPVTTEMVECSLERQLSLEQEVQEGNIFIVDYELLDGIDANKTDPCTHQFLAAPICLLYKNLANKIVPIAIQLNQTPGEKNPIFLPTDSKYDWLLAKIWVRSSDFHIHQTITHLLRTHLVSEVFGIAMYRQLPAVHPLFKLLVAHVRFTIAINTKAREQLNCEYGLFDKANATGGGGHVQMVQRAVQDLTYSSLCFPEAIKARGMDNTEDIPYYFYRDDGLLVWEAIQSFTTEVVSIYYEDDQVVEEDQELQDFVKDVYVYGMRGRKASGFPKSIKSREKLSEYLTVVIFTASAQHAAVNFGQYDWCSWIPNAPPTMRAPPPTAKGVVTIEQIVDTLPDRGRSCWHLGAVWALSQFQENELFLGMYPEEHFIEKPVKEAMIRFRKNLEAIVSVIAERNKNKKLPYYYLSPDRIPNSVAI
The experiment in a line: Compound was tested for its inhibitory activity against 5-lipoxygenase in rat.

For data set [2], the target named is T2, Arachidonate 5-lipoxygenase-activating protein (Homo sapiens, UniProt P20292).
T2 sequence (P20292 whole entry): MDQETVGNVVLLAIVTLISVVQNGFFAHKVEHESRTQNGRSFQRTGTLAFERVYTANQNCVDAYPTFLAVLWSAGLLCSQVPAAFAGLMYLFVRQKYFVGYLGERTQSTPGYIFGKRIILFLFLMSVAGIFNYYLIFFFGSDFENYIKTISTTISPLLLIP
Briefly: Compound was tested for its binding activity towards 5-lipoxygenase activating protein (FLAP).

Data set [3] relates to Rattus norvegicus. The experiment in a line: Compound was tested for inhibition of dyspnea at 0.5 mg/kg when administered perorally in rats. It is filed as functional. The conditions noted are these: route oral.
In data set [4] the test system is Rattus norvegicus. The experiment in a line: Time to reach maximum concentration following oral administration of 200 mg/kg in rat; value ranges from 2-4. The data set is classed as ADME, organism-based. Further details: dose 200 mg/kg, route oral. The settings on record: in vivo.
Data set [5] is described as follows: Maximum plasma concentration in rats when a oral dose of 200 mg/kg was given. The settings on record: rat. It is filed as ADME, organism-based. Also on record: dose 200 mg/kg, route oral.

Broadly, the IC50 is the midpoint of a concentration-inhibition curve. The low end stands for inhibition by little substance, the high end for a need for much substance. `Cc1c(CC(C)(C)C(=O)O)n(Cc2ccc(Cl)cc2)c2ccc(OCc3ccc(-c4ccccc4)cn3)cc12`: the IC50 in data set [1] stood at 700 nM; in data set [2], 9.3 nM.
For `Cc1c(CC(C)(C)C(=O)O)n(Cc2ccc(Cl)cc2)c2ccc(OCc3ccc4ccccc4n3)cc12`, the IC50 in data set [1] is > 5000 nM; in data set [2], 2.8 nM.
With `C=CCc1c(OCc2ccc3ccccc3n2)ccc2c1c(SC(C)(C)C)c(CC(C)(C)C(=O)O)n2Cc1ccc(Cl)cc1`, the IC50 was > 8000 nM in data set [1] and 27 nM in data set [2].
Take `CC1Cc2c(OCc3ccc4ccccc4n3)ccc3c2c(c(CC(C)(C)C(=O)O)n3Cc2ccc(Cl)cc2)S1` (centres undefined): the IC50 in data set [1] worked out at 300 nM; in data set [2], 19 nM.
As a reminder, the inhibition in vivo is the relative decrease from the control value, in per cent. A higher inhibition in vivo goes with a response far below the control. As usually defined, the Cmax is the maximum level reached in the sampled fluid or tissue. Regarding `CC1Cc2c(OCc3ccc(-c4ccccc4)cn3)ccc3c2c(c(CC(C)(C)C(=O)O)n3Cc2ccc(Cl)cc2)S1` (racemic), the IC50 in data set [1] turned out to be 60 nM; in data set [2], 22000 nM. For the same molecule, in the data set on Rattus norvegicus [3], at 0.5 mg/kg the inhibition in vivo was 55%. This molecule showed a T max in the data set with Rattus norvegicus [4] of 2 h. In data set [5], this molecule displayed a Cmax of 5 µM.
On to `CC1Cc2c(OCc3ccc(-c4ccccc4)cn3)ccc3c2c(c(CC(C)(C)C(=O)O)n3Cc2ccc(Cl)cc2)S1` (single isomer, unassigned; (+)), for which the IC50 in data set [1] was 150 nM; in data set [2] it was > 10000 nM.
Take `CC1Cc2c(OCc3ccc(-c4ccccc4)cn3)ccc3c2c(c(CC(C)(C)C(=O)O)n3Cc2ccc(Cl)cc2)S1` (single isomer, unassigned; (-)): the IC50 in data set [1] is 40 nM; in data set [2], > 10000 nM.
The corresponding values for `CC(C)(C)Sc1c(CC(C)(C)C(=O)O)n(Cc2ccc(Cl)cc2)c2ccc(OCc3ccc4ccccc4n3)cc12` [QUIFLAPON] are > 2000 nM and 2.3 nM.

For the origin of these results see ChEMBL document CHEMBL1153665, “Development of L-689,065 - the prototype of a new class of potent 5-lipoxygenase inhibitors” (Bioorg Med Chem Lett, 1992).
